Tested on: male Wistar rats
Assay: Evaluation of wake promoting activity in rats (EEG/EMG sleep/wake scoring)
Type: in vivo, rat
Details: i.p., 100 mg/kg, p<0.05 vs control groups
Method: Biological Data Methodology: Evaluation of Wake Promoting Activity in Rats
The methodology utilized for evaluating wake promoting activity of test compounds is based on that described by Edgar and Seidel, Journal of Pharmacology and Experimental Therapeutics, 283:757-769, 1997, and incorporated herein in its entirety by reference.
Animal Surgery. Adult, male Wistar rats (275-320 g from Charles River Laboratories, Wilmington, Mass.) were anesthetized (Nembutal, 45 mg/kg, ip.) and surgically prepared with implants for recording of chronic EEG (encephalographic) and EMG (electromyographic) recording. The EEG implants were made from commercially available components (Plastics One, Roanoke, Va.). EEG signals were recorded from stainless steel screw electrodes: 2 frontal (+3.0 mm AP from bregma, ±2.0 mm ML), and 2 occipital (−4.0 mm AP from bregma, ±2.0 mm ML). Two Teflon-coated stainless steel wires were positioned under the nuchal trapezoid muscles for EMG recording. […]
Data acquisition. […] On the day of dosing, data was recorded for 6 to 10 hours beginning at 11 AM.
(i) Drug administration and study design. Compounds were evaluated on groups of from 4 to 8 rats carried out over one or two separate test sessions. […]
Sleep/wake scoring. Sleep and wake activity were determined manually using ICELUS software. […]

CC(C)(C)OC(=O)N1CCN(C(=O)CSCc2ccc3oc4ccc(F)cc4c3c2)CC1 [Example 26, 4-[2-(8-fluorodibenzofuran-2-yl-methylsulfanyl)acetyl]-piperazine-1-carboxylic acid tert-butyl ester]
wakefulness compared to vehicle-treated animals: significantly greated wakefulness
